Assay [1] addresses Tyrosine-protein kinase Blk (Homo sapiens, UniProt P51451). Put plainly: Inhibition of human BLK using (poly [Glu, Tyr] 4:1) as substrate assessed as incorporation of 33P in substrate by [gamma33P] ATP-based kinase assay.
Assay [2] deals with Tyrosine-protein kinase Yes (Homo sapiens, UniProt P07947). Put plainly: Inhibition of human YES using (poly [Glu, Tyr] 4:1) as substrate assessed as incorporation of 33P in substrate by [gamma33P] ATP-based kinase assay.
Assay [3] addresses Phosphatidylinositol 4,5-bisphosphate 3-kinase catalytic subunit alpha isoform (Homo sapiens, UniProt P42336). Put plainly: Inhibition of PI3Kalpha (unknown origin) using (poly [Glu, Tyr] 4:1) as substrate assessed as incorporation of 33P in substrate by [gamma33P] ATP-based kinase assay.
Assay [4] has as its target Phosphatidylinositol 4,5-bisphosphate 3-kinase catalytic subunit beta isoform (Homo sapiens, UniProt P42338). The assay is described as follows: Inhibition of PI3Kbeta (unknown origin) using PIP2 as substrate by HTRF assay. Background: TR-FRET usually uses a lanthanide donor and a delayed reading to cut background.
The target in assay [5] is Phosphatidylinositol 4,5-bisphosphate 3-kinase catalytic subunit gamma isoform (Homo sapiens, UniProt P48736). Put plainly: Inhibition of PI3Kgamma (unknown origin) using PIP2 as substrate by HTRF assay.
Phosphatidylinositol 4,5-bisphosphate 3-kinase catalytic subunit gamma isoform, sequence (P48736 whole entry, canonical isoform): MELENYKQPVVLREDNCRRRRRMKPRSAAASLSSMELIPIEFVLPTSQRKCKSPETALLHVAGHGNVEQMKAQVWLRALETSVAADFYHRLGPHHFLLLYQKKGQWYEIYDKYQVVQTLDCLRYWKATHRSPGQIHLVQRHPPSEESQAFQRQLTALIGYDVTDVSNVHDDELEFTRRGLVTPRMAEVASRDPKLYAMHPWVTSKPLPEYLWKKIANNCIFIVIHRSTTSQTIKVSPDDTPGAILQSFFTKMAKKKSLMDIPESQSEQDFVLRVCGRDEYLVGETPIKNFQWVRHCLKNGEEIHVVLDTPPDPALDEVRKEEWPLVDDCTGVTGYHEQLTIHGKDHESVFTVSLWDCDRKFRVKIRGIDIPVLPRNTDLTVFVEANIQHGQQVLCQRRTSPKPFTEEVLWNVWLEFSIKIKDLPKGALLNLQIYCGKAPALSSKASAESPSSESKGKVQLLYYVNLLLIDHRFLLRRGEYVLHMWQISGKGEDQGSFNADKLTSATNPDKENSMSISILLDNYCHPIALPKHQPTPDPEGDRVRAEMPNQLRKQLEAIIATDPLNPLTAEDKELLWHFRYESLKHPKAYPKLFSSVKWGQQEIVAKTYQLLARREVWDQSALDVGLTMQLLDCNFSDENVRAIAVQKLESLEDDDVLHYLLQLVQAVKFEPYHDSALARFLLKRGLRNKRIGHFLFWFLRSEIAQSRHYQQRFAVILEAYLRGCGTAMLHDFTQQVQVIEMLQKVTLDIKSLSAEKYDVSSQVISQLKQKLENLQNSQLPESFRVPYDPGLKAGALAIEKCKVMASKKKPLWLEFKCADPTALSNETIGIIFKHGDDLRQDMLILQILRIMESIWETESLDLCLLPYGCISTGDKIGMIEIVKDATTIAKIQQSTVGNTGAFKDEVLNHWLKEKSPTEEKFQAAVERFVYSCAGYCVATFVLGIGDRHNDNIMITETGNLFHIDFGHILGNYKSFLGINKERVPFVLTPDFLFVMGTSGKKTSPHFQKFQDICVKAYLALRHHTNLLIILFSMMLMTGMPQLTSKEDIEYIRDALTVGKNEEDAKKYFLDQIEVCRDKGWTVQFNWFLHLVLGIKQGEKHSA
Assay [6] concerns the target DNA-dependent protein kinase catalytic subunit (Homo sapiens, UniProt P78527). The assay is described as follows: Inhibition of human DNA-PK using (poly [Glu, Tyr] 4:1) as substrate assessed as incorporation of 33P in substrate by [gamma33P] ATP-based kinase assay.
The test system of assay [7] is MDA-MB-231. Put plainly: Cytotoxicity against human MDA-MB-231 cells after 5 days by Presto blue reagent-based spectrofluorometric analysis. It is filed as functional, cell-based. To be noted: MDA-MB-231, 120 h.
The test system of assay [8] is MCF7. The assay is described as follows: Cell cycle arrest in human MCF7 cells assessed as increase in G0/G1 population after 24 hrs by Hoechst 33342 staining-based fluorescence analysis. The assay is classed as functional.
Assay [9] deals with MDA-MB-231. The assay is described as follows: Cell cycle arrest in human MDA-MB-231 cells assessed as increase in G0/G1 population after 24 hrs by Hoechst 33342 staining-based fluorescence analysis. It is filed as functional.
Assay [10] addresses T1, mTORC1 (Homo sapiens) (UniProt P42345+Q8N122+Q9BVC4). Put plainly: Inhibition of mTORC1 in human MCF7 cells assessed as reduction in phosphorylated P70S6K preincubated for 30 mins followed by serum stimulation for 1 hr by Western blot analysis. It is filed as cell-based.
Assay [11] has as its system MCF7. Put plainly: Inhibition of mTORC2 in human MCF7 cells assessed as reduction in phosphorylated AKT level preincubated for 30 mins followed by serum stimulation for 1 hr by Western blot analysis. It is filed as cell-based. For orientation: In western blotting, separated proteins are transferred to a membrane and probed.
Assay [12] has as its target T1, mTORC1 (Homo sapiens). Put plainly: Inhibition of mTORC1 in human MCF7 cells assessed as reduction in phosphorylated P70S6K at 30 nM preincubated for 30 mins followed by serum stimulation for 1 hr by Western blot analysis. The assay is classed as cell-based.
Assay [13] deals with MCF7. Put plainly: Inhibition of mTORC2 in human MCF7 cells assessed as reduction in phosphorylated AKT level at 30 nM preincubated for 30 mins followed by serum stimulation for 1 hr by Western blot analysis. It is filed as cell-based.

Activity calls are given as the source filed them. The rule behind the calls is not given here. Bounds are passed on as bounds.

T1 sequence (Q8N122 whole entry, looked up, other chains not shown): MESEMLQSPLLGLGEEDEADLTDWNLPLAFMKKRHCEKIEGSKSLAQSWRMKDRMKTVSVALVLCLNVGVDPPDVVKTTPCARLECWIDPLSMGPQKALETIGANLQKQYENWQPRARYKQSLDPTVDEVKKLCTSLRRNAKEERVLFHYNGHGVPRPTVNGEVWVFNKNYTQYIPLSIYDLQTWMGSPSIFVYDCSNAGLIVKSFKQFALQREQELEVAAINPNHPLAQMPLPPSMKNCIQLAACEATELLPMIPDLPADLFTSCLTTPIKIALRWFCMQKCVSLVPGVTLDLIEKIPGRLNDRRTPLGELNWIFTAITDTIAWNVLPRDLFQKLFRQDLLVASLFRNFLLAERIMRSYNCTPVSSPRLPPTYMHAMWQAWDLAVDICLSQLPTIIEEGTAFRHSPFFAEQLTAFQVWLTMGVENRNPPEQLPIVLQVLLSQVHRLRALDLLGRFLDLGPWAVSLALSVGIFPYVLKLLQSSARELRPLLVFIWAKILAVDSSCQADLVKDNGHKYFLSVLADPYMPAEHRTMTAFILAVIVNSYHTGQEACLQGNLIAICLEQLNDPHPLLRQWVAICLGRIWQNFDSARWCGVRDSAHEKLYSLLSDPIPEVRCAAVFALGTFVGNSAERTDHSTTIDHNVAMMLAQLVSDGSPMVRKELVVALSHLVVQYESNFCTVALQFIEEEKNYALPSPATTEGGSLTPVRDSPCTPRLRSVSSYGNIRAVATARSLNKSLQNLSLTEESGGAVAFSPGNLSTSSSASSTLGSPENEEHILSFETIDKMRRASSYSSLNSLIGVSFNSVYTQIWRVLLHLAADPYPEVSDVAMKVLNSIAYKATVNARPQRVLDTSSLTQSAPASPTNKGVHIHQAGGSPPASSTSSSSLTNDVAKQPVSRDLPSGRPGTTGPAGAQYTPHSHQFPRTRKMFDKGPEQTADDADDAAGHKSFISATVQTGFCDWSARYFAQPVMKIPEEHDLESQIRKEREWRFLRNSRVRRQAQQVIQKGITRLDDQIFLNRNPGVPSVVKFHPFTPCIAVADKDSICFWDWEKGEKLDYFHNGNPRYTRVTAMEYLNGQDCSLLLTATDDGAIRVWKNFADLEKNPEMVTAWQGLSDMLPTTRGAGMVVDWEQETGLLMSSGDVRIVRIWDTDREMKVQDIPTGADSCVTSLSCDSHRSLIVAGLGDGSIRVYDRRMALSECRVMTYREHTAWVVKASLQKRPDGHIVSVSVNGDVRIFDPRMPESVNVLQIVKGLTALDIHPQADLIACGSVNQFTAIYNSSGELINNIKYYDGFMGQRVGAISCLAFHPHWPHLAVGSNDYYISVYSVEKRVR
T1 sequence (Q9BVC4 whole entry, looked up, other chains not shown): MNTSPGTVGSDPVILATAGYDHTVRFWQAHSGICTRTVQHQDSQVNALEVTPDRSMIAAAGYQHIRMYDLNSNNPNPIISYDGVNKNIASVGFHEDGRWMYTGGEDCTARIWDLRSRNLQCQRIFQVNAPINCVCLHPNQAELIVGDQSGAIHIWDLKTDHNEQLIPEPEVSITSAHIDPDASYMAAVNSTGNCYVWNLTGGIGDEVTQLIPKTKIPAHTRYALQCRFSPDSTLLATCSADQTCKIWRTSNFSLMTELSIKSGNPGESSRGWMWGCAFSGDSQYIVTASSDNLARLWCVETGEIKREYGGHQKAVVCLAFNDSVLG
Tyrosine-protein kinase Blk, sequence (P51451 whole entry): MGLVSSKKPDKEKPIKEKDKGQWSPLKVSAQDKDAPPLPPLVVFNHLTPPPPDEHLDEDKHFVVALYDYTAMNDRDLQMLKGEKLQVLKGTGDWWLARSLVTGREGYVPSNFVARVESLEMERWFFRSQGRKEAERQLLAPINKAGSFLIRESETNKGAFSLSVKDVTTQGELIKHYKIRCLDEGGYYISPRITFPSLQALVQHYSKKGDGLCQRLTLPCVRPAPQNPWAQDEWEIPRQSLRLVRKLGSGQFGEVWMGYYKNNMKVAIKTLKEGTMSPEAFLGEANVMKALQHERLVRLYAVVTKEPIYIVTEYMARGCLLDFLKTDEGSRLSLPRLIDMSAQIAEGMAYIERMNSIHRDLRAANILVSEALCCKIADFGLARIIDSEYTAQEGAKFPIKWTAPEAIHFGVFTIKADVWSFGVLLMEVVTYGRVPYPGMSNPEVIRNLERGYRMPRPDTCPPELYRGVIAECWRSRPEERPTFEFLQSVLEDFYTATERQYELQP
Phosphatidylinositol 4,5-bisphosphate 3-kinase catalytic subunit alpha isoform, sequence (P42336 whole entry, canonical isoform): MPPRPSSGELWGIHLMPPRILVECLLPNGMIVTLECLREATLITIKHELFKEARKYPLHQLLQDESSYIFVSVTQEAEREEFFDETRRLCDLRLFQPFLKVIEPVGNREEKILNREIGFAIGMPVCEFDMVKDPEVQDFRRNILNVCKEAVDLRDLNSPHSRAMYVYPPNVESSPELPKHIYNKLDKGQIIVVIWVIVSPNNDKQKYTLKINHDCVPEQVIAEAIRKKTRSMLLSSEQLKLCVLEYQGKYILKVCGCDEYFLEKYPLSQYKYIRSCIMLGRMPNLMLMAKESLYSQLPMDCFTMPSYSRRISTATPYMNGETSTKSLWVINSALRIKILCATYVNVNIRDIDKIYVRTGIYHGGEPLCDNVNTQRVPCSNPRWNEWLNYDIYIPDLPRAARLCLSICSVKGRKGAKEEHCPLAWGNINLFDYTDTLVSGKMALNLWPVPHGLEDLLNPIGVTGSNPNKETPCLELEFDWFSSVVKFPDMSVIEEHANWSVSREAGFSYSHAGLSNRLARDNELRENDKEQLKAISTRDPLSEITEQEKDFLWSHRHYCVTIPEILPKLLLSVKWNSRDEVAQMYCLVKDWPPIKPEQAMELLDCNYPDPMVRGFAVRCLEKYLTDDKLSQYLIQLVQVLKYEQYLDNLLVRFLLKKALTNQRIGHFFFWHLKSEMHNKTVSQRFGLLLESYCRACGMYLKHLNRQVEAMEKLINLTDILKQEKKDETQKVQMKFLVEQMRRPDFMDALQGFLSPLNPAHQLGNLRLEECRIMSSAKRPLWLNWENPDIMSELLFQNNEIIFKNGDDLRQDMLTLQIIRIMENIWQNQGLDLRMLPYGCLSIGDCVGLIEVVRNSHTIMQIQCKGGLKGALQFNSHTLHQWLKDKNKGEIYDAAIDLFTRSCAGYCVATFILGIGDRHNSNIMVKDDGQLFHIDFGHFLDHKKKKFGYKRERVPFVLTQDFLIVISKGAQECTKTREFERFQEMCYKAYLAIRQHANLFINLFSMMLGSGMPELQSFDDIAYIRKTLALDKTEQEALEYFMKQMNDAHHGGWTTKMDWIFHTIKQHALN
Tyrosine-protein kinase Yes, sequence (P07947 whole entry, canonical isoform): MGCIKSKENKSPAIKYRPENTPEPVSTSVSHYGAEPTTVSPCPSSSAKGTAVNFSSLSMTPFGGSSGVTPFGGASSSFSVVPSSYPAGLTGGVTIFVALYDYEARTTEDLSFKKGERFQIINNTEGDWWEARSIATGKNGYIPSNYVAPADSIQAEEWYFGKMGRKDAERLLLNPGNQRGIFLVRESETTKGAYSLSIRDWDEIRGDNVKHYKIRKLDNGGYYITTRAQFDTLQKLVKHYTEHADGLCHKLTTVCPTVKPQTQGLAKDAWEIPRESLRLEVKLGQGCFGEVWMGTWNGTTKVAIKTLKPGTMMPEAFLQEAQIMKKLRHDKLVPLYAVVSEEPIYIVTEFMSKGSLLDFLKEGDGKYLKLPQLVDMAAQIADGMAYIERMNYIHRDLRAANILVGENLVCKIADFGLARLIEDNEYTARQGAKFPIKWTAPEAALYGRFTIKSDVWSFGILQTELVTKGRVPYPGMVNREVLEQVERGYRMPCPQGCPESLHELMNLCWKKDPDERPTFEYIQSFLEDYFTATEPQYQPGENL

The IC50 is the concentration needed to halve the response being measured. As a reminder, the EC50 is the concentration giving half of the maximal effect. For orientation: inhibition means how much of the control response was suppressed. On to `CCOC(Cn1nc(-c2ccc3oc(N)nc3c2)c2c(N)ncnc21)OCC`, for which the IC50 was above 100 µM in assay [1]; above 100 µM in [2]; 0.981 µM in assay [3]; above 100 µM in assay [4]; 1.34 µM in assay [5]; 0.32 µM in assay [6]. The molecule further gave an EC50 with MDA-MB-231 [7] of 0.072 µM. Also, the outcome in the assay on MCF7 [8] and with MDA-MB-231 [9] was Active. Also, the inhibition result is “Dose-dependent effect” on mTORC1 (Homo sapiens) [10], “Dose-dependent effect” with MCF7 [11], 100% at mTORC1 (Homo sapiens) [12] and 100% in the assay on MCF7 [13].
